According to article PMC9611449, “Hydroxy-3-Phenylcoumarins as Multitarget Compounds for Skin Aging Diseases: Synthesis, Molecular Docking and Tyrosinase, Elastase, Collagenase and Hyaluronidase Inhibition, and Sun Protection Factor” (Molecules, 2022):
Entries after “also recorded” stand apart in the source; their conditions may differ.

Experiments:
[1] = target: mushroom tyrosinase; parameters: method as in doi:10.1039/C5RA14465E; conditions: data previously reported; cited from earlier work
[2] = system: Collagenase from Clostridium histolyticum; assay: Collagenase inhibition assay (FALGPA substrate); assay type: biochemical
Protocol: Results from all the inhibition tests described below were reported as a percentage of the blank control. Since the compounds were dissolved in DMSO, in the assays carried out without compounds, DMSO was added to the reaction mixture as blank control. […] Data from activity experiments were recorded using an Ultrospec 2100 spectrophotometer (Biochrom Ltd., Cambridge, UK).
Collagenase from Clostridium histolyticum (1 U/mL) was prepared in 0.05 M Tricine buffer (pH 7.5), with 0.4 M NaCl and 0.01 M CaCl2, and incubated with different concentrations of test samples for 15 minutes. After adding the N-(3-[2-Furyl]-acryloyl)-Leu-Gly-Pro-Ala (FALGPA) substrate, prepared in the same buffer solution reaching a final concentration of 0.8 mM, the absorbance was registered at 340 nm. Epigallocatechin gallate was used as a positive control.

[3] = target: porcine pancreatic elastase (Sus scrofa, UniProt P00772); assay: Elastase inhibition assay (SANA substrate); assay type: biochemical
Protocol: (§1) Since the compounds were dissolved in DMSO, in the assays carried out without compounds, DMSO was added to the reaction mixture as blank control. […] Data from activity experiments were recorded using an Ultrospec 2100 spectrophotometer (Biochrom Ltd., Cambridge, UK).
The inhibition of elastase was determined by measuring the production of p-nitroaniline during the reaction of the enzyme with the N-succ-(Ala)3-nitroanilide (SANA) substrate. The assay was carried out in Tris-HCl buffer (0.1 M, pH 8.0) containing porcine pancreatic elastase (3.3 µg/mL). The reaction mixture was incubated in the presence or in the absence of the test compounds for 20 minutes and, once the substrate (1.6 mM) was added, the enzyme activity was monitored at 410 nm.

[4] = system: Human skin keratinocyte cell line (HaCaT); assay: HaCaT cell viability (MTT assay); assay type: cell-based; conditions: 10–200 μM, 24 h
Protocol: Human skin keratinocyte cell line (HaCaT; CLS–Cell Lines Service, Eppelheim, Germany) was cultured in Dulbecco’s Modified Eagle’s Medium (DMEM) with 10% fetal bovine serum (FBS; Gibco, NY, USA) and 1% penicillin/streptomycin at 37 °C in a humidified atmosphere with 5% CO2. Cell viability was determined by the MTT (3-(4,5-dimethylthiazol-2-yl)-2,5-diphenyltetrazolium bromide) colorimetric assay, as previously reported. Briefly, HaCaT cells were seeded in 96-well plates and incubated with compounds at different concentrations (0–200 µM). After 24 h, cells were labelled with MTT solution for 3 h at 37 °C. DMSO was added to the formed violet formazan precipitates and the absorbance of each well was measured at 560 nm.

[5] = system: mushroom tyrosinase; assay: Tyrosinase inhibition assay (L-DOPA substrate); assay type: biochemical
Protocol: as §1
The inhibition of tyrosinase was monitored by using DOPA as substrate. The reaction solution contained phosphate buffer (25 mM, pH 6.8) and mushroom tyrosinase (100 U/mL), with or without test samples.

[6] = mean ± SD of three independent experiments

Chain of porcine pancreatic elastase (P00772 27-266): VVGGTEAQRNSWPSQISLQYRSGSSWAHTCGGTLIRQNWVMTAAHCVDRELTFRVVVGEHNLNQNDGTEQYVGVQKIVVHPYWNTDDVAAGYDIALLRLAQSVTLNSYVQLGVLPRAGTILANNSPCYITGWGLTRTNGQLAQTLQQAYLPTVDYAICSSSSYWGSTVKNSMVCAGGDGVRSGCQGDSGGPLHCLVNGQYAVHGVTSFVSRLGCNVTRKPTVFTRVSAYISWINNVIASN

O=c1oc2cc(O)cc(O)c2cc1-c1ccc(Br)cc1 [Compound 1, 3-(4′-Bromophenyl)-5,7-dihydroxycoumarin]
IC50 [1]: 1.05 ± 0.06 µM | Enzyme inhibition Collagenase ([2]; 100 μM): 42.6% | IC50 [2, 6]: 123 ± 2.2 µM | melting point: 273 to 275 °C | inhibition at 50 µM ([3]; 50 μM, read-out: Enzyme inhibition Elastase): 15.6% | IC50 [3, 6]: > 50 µM | Cytotoxicity on HaCaT cell viability [4]: non-cytotoxic; also recorded: no toxicity | Enzyme inhibition Tyrosinase ([5]; 50 μM): 98.3% | times more active than the standard inhibitor kojic acid (tyrosinase) ([5]; ratio of IC50 values): 17 times
